Measured values from patent publication US20120083522A1, “MODULATION OF INFLAMMATORY RESPONSES BY FACTOR XI” (Isis Pharmaceuitcals, inc., priority 2009, published 2012).
e = 2'-O-(2-methoxyethyl) (MOE); d = 2'-deoxy (DNA)

What was measured:
[1] = test system: human Factor XI mRNA; test: Dose-dependent antisense inhibition in HepG2 cells, lipofectin (Example 2); assay type: cell-based; conditions: approximately 16 hours
Method: Cells were plated at a density of 10,000 cells per well and transfected using lipofectin reagent with 9.375 nM, 18.75 nM, 37.5 nM, 75 nM, and 150 nM concentrations of antisense oligonucleotide, as specified in Table 3. After a treatment period of approximately 16 hours, RNA was isolated from the cells and Factor XI mRNA levels were measured by quantitative real-time PCR. Human Factor XI primer probe set RTS 2966 (forward sequence: […], incorporated herein as SEQ ID NO: 3; reverse sequence: […], incorporated herein as SEQ ID NO: 4; probe sequence: TTGTCTACTGAAGCACACCCAAACAGGGAX, wherein X is the fluorophore, incorporated herein as SEQ ID NO: 5) was used to measure mRNA levels. Factor XI mRNA levels were adjusted according to total RNA content, as measured by RIBOGREEN®. Results are presented as percent inhibition of Factor XI, relative to untreated control cells.

[2] = test system: human Factor XI mRNA; test: Antisense inhibition in HepG2 cells by microwalk gapmers, 8,000 nM, electroporation (Example 14); assay type: cell-based; conditions: HepG2 cells, 8,000 nM
Method in brief: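 Percent reduction of Factor XI transcript, relative to untreated controls, by real-time PCR with RIBOGREEN normalisation. Readout taken about 24 h after electroporating HepG2 cells with 8,000 nM oligonucleotide. Gapmers are 5-10-5, 5-8-5 or 6-8-6 MOE wings, phosphorothioate backbone.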

[3] = set-up: species or system Sprague-Dawley rats; conditions: rat, in vivo, sc, 20 mg/kg
Method: The concentration of the full-length oligonucleotide as well as the total oligonucleotide concentration (including the degraded form) was measured. The method used is a modification of previously published methods (Leeds et al., 1996; Geary et al., 1999) which consist of a phenol-chloroform (liquid-liquid) extraction followed by a solid phase extraction. An internal standard (ISIS 355868, a 27-mer 2′-O-methoxyethyl modified phosphorothioate oligonucleotide, […], designated herein as SEQ ID NO: 270) was added prior to extraction. […] The results are presented in Tables 98 and 99, expressed as μg/g liver or kidney tissue.

[4] = test system: human Factor XI mRNA; test: Antisense inhibition in HepG2 cells by microwalk gapmers, 75 nM, lipofectin (Example 3); assay type: cell-based; conditions: HepG2 cells, 75 nM, oligonucleotides targeted to nucleobases 1275 to 1318 of SEQ ID NO: 1
Method in brief: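 HepG2 cells (10,000 per well) were transfected with 75 nM gapmer using lipofectin and treated for about 24 h. Factor XI mRNA was quantified by real-time PCR, normalized to RiboGreen total RNA and expressed as percent inhibition versus untreated controls.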

[5] = test system: human Factor XI mRNA; test: Dose-dependent inhibition in HepG2 cells, lipofectin (Example 4); assay type: cell-based; conditions: 16 hours
Method in brief: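 Read-out was percent inhibition of Factor XI mRNA relative to untreated controls, by qRT-PCR (RTS 2966) adjusted for RIBOGREEN-measured total RNA. Cells received antisense oligonucleotide at 9.375 to 75 nM (four levels) via lipofectin. Treatment lasted approximately 16 hours, with plating at 10,000 cells per well.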

[6] = test system: human Factor XI mRNA; test: Dose-dependent inhibition in HepG2 cells, electroporation (Example 4); assay type: cell-based; conditions: 16 hours
Method in brief: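 HepG2 cells electroporated with 0.7, 2.2, 6.7 or 20 μM antisense gapmer and harvested after ~16 h. Factor XI mRNA quantified by qRT-PCR (primer probe set RTS 2966), normalised to total RNA (RIBOGREEN). Reported as percent inhibition versus untreated control cells.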

[7] = test system: human Factor XI mRNA; test: Dose-dependent inhibition and IC50 in HepG2 cells, electroporation (Example 15); assay type: cell-based
Method: Cells were plated at a density of 20,000 cells per well and transfected using electroporation with 123.46 nM, 370.37 nM, 1,111.11 nM, 3,333.33 nM and 10,000 nM concentrations of antisense oligonucleotide, as specified in Table 52. After a treatment period of approximately 16 hours, RNA was isolated from the cells and Factor XI mRNA levels were measured by quantitative real-time PCR. Human Factor XI primer probe set RTS 2966 was used to measure mRNA levels. Factor XI mRNA levels were adjusted according to total RNA content, as measured by RIBOGREEN. Results are presented as percent inhibition of Factor XI, relative to untreated control cells.

[8] = Tolerability in CD1 mice: liver function (Example 17); assay type: in vivo; set-up: Albumin: unit not given here; conditions: plasma, 50 mg/kg s.c. twice a week
[9] = Tolerability in CD1 mice: kidney function (Example 17); assay type: in vivo; conditions: plasma, 50 mg/kg s.c. twice a week
Source text: Results are presented in Tables 62 and 63, expressed in mg/dL.

[10] = Tolerability in CD1 mice: hematology assays (Example 17); assay type: in vivo; conditions: for lymphocyte count / monocyte count / neutrophil count: percent of total blood cell count; for HCT / MCH / MCHC / MCV / WBC count: blood, 50 mg/kg s.c. twice a week
Method: A control group of five mice was injected subcutaneously with PBS for 2 weeks. All experimental groups (i.e. ASO treated mice at 2, 4, 6 weeks) were compared to the control group (i.e. PBS, 2 weeks).
Blood obtained from all mice groups were sent to Antech Diagnostics for hematocrit (HCT), mean corpuscular volume (MCV), mean corpuscular hemoglobin (MCH), and mean corpuscular hemoglobin concentration (MCHC) measurements and analyses, as well as measurements of the various blood cells, such as WBC (neutrophils, lymphocytes, and monocytes), RBC, and platelets, and total hemoglobin content. Percentages given in the tables indicate the percent of total blood cell count.

[11] = Tolerability in Sprague-Dawley rats: liver function (Example 19); assay type: in vivo; conditions: plasma, 50 mg/kg s.c. twice per week for 6 weeks
Source text: (§1) Urine samples were taken before the start of treatment.

[12] = Tolerability in Sprague-Dawley rats: kidney function (Example 19); assay type: in vivo; conditions: Sprague-Dawley rats, plasma, 50 mg/kg s.c. twice per week for 6 weeks
Source text: as §1

[13] = Tolerability in Sprague-Dawley rats: hematology assays (Example 19); assay type: in vivo; conditions: 50 mg/kg s.c. twice per week for 6 weeks
Source text: as §1

[14] = as above; assay type: in vivo; conditions: 50 mg/kg s.c. twice per week for 6 weeks; remark: listed apart in the source

Substance: 413481 (antisense GGTGCACAGTTTCTGGCAGG; sugars from the 5' end e5 d10 e5, backbone and methylation of C not given here) [compound 413481]
- percent inhibition of Factor XI ([1]; 9.375 nM): 22%
- percent inhibition of Factor XI ([1]; 18.75 nM): 38%
- percent inhibition of Factor XI ([1]; 37.5 nM): 56%
- percent inhibition of Factor XI ([1]; 75 nM): 67%
- percent inhibition of Factor XI ([1]; 150 nM): 83%
- Percent inhibition of human Factor XI mRNA levels [2]: 82%
- Half-life in the liver and kidney [3]: 21 days

Substance: 413482 (antisense GGACGGCATTGGTGCACAGT; sugars from the 5' end e5 d10 e5, backbone and methylation of C not given here) [compound 413482]
- percent inhibition of Factor XI ([1]; 9.375 nM): 26%
- percent inhibition of Factor XI ([1]; 18.75 nM): 39%
- percent inhibition of Factor XI ([1]; 37.5 nM): 59%
- percent inhibition of Factor XI ([1]; 75 nM): 74%
- percent inhibition of Factor XI ([1]; 150 nM): 82%
- % inhibition of human Factor XI mRNA levels [4]: 89%
- Percent inhibition of human Factor XI mRNA levels [2]: 88%
- Half-life in the liver and kidney [3]: 20 days

Substance: 416856 (antisense GGCATTGGTGCACAGTTTCT; 5-10-5 gapmer, wing sugar chemistry not given here, further chemistry not given here) [compound 416856]
- % inhibition of human Factor XI mRNA levels [4]: 95%
- percent inhibition of Factor XI mRNA, relative to untreated control cells ([5]; 9.375 nM): 21%
- percent inhibition of Factor XI mRNA, relative to untreated control cells ([5]; 18.75 nM): 45%
- percent inhibition of Factor XI mRNA, relative to untreated control cells ([5]; 37.5 nM): 58%
- percent inhibition of Factor XI mRNA, relative to untreated control cells ([5]; 75 nM): 74%
- percent inhibition of Factor XI mRNA, relative to untreated control cells ([6]; 0.7 μM): 0%
- percent inhibition of Factor XI mRNA, relative to untreated control cells ([6]; 2.2 μM): 29%
- percent inhibition of Factor XI mRNA, relative to untreated control cells ([6]; 6.7 μM): 47%
- percent inhibition of Factor XI mRNA, relative to untreated control cells ([6]; 20 μM): 93%
- Percent inhibition of human Factor XI mRNA levels [2]: 84%
- percent inhibition of Factor XI mRNA ([7]; electroporation, 123.47 nM): 12%
- percent inhibition of Factor XI mRNA ([7]; electroporation, 370.37 nM): 23%
- percent inhibition of Factor XI mRNA ([7]; electroporation, 1,111.11 nM): 35%
- percent inhibition of Factor XI mRNA ([7]; electroporation, 3,333.33 nM): 59%
- percent inhibition of Factor XI mRNA ([7]; electroporation, 10,000.0 nM): 83%
- Half-life in the liver and kidney [3]: 19 days

Substance: ATGCCCTTCATGTCTAGGTC (all C 5-methyl, all phosphorothioate, sugars by position not given here; MOE gapmer) [ISIS 416826, 5-10-5 MOE gapmer]
- ALT ([8]; 2 weeks): 182 IU/L
- AST ([8]; 2 weeks): 274 IU/L
- Albumin ([8]; 2 weeks): 3.3
- Bilirubin ([8]; 2 weeks): 0.39 mg/dL
- ALT ([8]; 4 weeks): 126 IU/L
- AST ([8]; 4 weeks): 156 IU/L
- Albumin ([8]; 4 weeks): 3.4
- Bilirubin ([8]; 4 weeks): 0.20 mg/dL
- ALT ([8]; 6 weeks): 1954 IU/L
- AST ([8]; 6 weeks): 1411 IU/L
- Albumin ([8]; 6 weeks): 3.4
- Bilirubin ([8]; 6 weeks): 0.37 mg/dL
- BUN ([9]; 2 weeks): 24 mg/dL
- creatinine ([9]; 2 weeks): 0.15 mg/dL
- BUN ([9]; 4 weeks): 34 mg/dL
- creatinine ([9]; 4 weeks): 0.20 mg/dL
- BUN ([9]; 6 weeks): 27 mg/dL
- creatinine ([9]; 6 weeks): 0.15 mg/dL
- RBC count ([10]; 2 weeks): 8 cells/pL
- hemoglobin content ([10]; 2 weeks): 13.4 g/dL
- platelet count ([10]; 2 weeks): 1498 cells/nL
- lymphocyte count ([10]; 2 weeks): 70%
- monocyte count ([10]; 2 weeks): 3%
- neutrophil count ([10]; 2 weeks): 26%
- RBC count ([10]; 4 weeks): 8 cells/pL
- hemoglobin content ([10]; 4 weeks): 12.8 g/dL
- platelet count ([10]; 4 weeks): 970 cells/nL
- lymphocyte count ([10]; 4 weeks): 61%
- monocyte count ([10]; 4 weeks): 5%
- neutrophil count ([10]; 4 weeks): 33%
- RBC count ([10]; 6 weeks): 7 cells/pL
- hemoglobin content ([10]; 6 weeks): 11.0 g/dL
- platelet count ([10]; 6 weeks): 645 cells/nL
- lymphocyte count ([10]; 6 weeks): 67%
- monocyte count ([10]; 6 weeks): 8%
- neutrophil count ([10]; 6 weeks): 23%
- HCT ([10]; 2 weeks): 47%
- MCH ([10]; 2 weeks): 17 pg
- MCHC ([10]; 2 weeks): 29%
- MCV ([10]; 2 weeks): 56 fL
- WBC count ([10]; 2 weeks): 5 cells/nL
- HCT ([10]; 4 weeks): 41%
- MCH ([10]; 4 weeks): 16 pg
- MCHC ([10]; 4 weeks): 31%
- MCV ([10]; 4 weeks): 52 fL
- WBC count ([10]; 4 weeks): 6 cells/nL
- HCT ([10]; 6 weeks): 37%
- MCH ([10]; 6 weeks): 16 pg
- MCHC ([10]; 6 weeks): 30%
- MCV ([10]; 6 weeks): 53 fL
- WBC count ([10]; 6 weeks): 8 cells/nL
- ALT [11]: 611 IU/L
- AST [11]: 104 IU/L
- Albumin [11]: 6 mg/dL
- Bilirubin [11]: 115 mg/dL
- BUN [12]: 25 mg/dL
- creatinine [12]: 6 mg/dL
- Lymphocytes [13]: 5%
- MCH ([13]; title says % control): 3 pg
- Monocytes [14]: 7%
- Neutrophils [14]: 30%
- Platelets [14]: 11 10^3/μL
- RBC [14]: 5 pL⁻¹
- WBC [14]: 7 nL⁻¹
- HCT ([14]; title says % control): 7%
- Hemoglobin ([14]; title says % control): 7 g/dL
- MCHC ([14]; title says % control): 4%
- MCV ([14]; title says % control): 6 fL
